From PMC7714071, “Interaction of amyloid beta with humanin and acetylcholinesterase is modulated by ATP” (FEBS Open Bio, 2020)

Key:
[1] = test system: HN-Aβ complex (A549 cell-conditioned media); test: ELISA, HN found in a complex with Aβ in A549 cell-conditioned media; assay type: binding, human; conditions: 6E10 or 82E1 on wells, relative to samples without ATP, three experiments in triplicate, Fig. 5A
Procedure: (§1) Human NSCLC cell lines, A549 (ATCC CCL‐185) and H1299 (ATCC CRL‐5803), were purchased from the American Type Culture Collection (ATCC, Manassas, VA, USA). Cells were seeded as we reported earlier in 5 mL HyClone Dulbecco's modified Eagle's medium/nutrient mixture F‐12 (DMEM/F12) (GE Healthcare Life Sciences, Pittsburgh, PA, USA), supplemented with 10% Fetalgro bovine growth serum (FBS; RMBIO, Missoula, MT, USA), 50 U·mL^−1 penicillin, and […] streptomycin (Invitrogen, Life Technologies, Carlsbad, CA, USA) in 25‐cm^2 tissue culture flasks, and allowed to grow overnight in an incubator at 37 °C, 95% humidity, and 5% CO2. The cells were counted after trypan blue staining, with a hemocytometer.
ELISAs were carried out as we previously reported. […] TBST was then used to wash the wells 4× before proceeding in one of two ways: (a) biotinylated samples were analyzed by adding 100 µL streptavidin–HRP conjugate in TBST (1 : 2500 dilution) to the samples followed by incubation for 3 h at RT on a shaker, or (b) samples without biotin were analyzed by adding 100 µL TBST containing the primary antibody as per the manufacturer's recommendation, incubating for 3 h at RT on a shaker, followed by washing the wells 4× with TBST. […] The reaction was stopped with 100 µL 2 M H2SO4 after incubating at RT for 0.5–15 min, resulting in a yellow color change, measured by absorbance at 450 nm. […]

[2] = test system: AChE-Aβ complex (A549 cell-conditioned media); test: ELISA, AChE found in a complex with Aβ in A549 cell-conditioned media; assay type: binding, human
Procedure: as §1
ELISAs were carried out as we previously reported. Nunc MaxiSorp 96‐well flat bottom plate (Thermo Fisher) wells were coated with samples as indicated. The plates were incubated overnight at 4 °C on a shaker to allow binding of the samples to the plate wells. After the incubation, the wells were washed 4× with TBST, filled with 400 µL blocking buffer (110 mM KCl, 5 mM NaHCO3, 5 mM MgCl2, 1 mM EGTA, 0.1 mM CaCl2, 20 mM HEPES, 1% BSA, pH 7.4), and incubated with shaking overnight at 4 °C. […] TBST was then used to wash the wells 4× before proceeding in one of two ways: (a) biotinylated samples were analyzed by adding 100 µL streptavidin–HRP conjugate in TBST (1 : 2500 dilution) to the samples followed by incubation for 3 h at RT on a shaker, or (b) samples without biotin were analyzed by adding 100 µL TBST containing the primary antibody as per the manufacturer's recommendation, incubating for 3 h at RT on a shaker, followed by washing the wells 4× with TBST. […] The reaction was stopped with 100 µL 2 M H2SO4 after incubating at RT for 0.5–15 min, resulting in a yellow color change, measured by absorbance at 450 nm. […] Before analysis, the OD from the data was corrected for nonspecific binding by subtracting the mean background absorbance for the negative controls. […] Statistical analysis was determined by the […] […] Data were expressed as the mean ± SD. […]

Compound: Nc1ncnc2c1ncn2[C@@H]1O[C@H](COP(=O)(O)OP(=O)(O)OP(=O)(O)O)[C@@H](O)[C@H]1O [ATP, Adenosine triphosphate]
- increase in the amount of HN bound to Aβ ([1]; 100 μM ATP): ~ 1.85 fold
- increase in the amount of HN bound to Aβ ([1]; 1 mM ATP): ~ 2.5 fold
- decrease in levels of AChE found in a complex with Aβ ([2]; 100 μM ATP, 6E10 or 82E1 on wells, three experiments in triplicate, Fig. 5A): ~ 2.3 fold
- levels of AChE found in a complex with Aβ ([2]; 1 mM ATP, 6E10 or 82E1 on wells, Fig. 5A): decreased to almost blank levels
- Aβ detected on anti-AChE wells upon ATP addition ([2]; anti-AChE on wells, Aβ detected by 6E10 or 82E1, Fig. 5B): comparable decrease in the levels of Aβ
